According to patent US12466834B2, “Imidazodiazepinediones and methods of use thereof” (GFB (ABC), LLC, priority 2018, dated 2025):

What follows are compounds tested against T1, human TRPC5 (Homo sapiens, UniProt Q9UL62) (assay: FLIPR calcium assay, inhibition of riluzole-activated TRPC5 calcium response). Details: ICLN-1633 cells; riluzole 30 μM stimulation; Fluo-4 calcium response; read-out: Inhibitor Potency Range (FLIPR).
T1 construct: expressed in transfected cells
T1 sequence (Q9UL62 1-973): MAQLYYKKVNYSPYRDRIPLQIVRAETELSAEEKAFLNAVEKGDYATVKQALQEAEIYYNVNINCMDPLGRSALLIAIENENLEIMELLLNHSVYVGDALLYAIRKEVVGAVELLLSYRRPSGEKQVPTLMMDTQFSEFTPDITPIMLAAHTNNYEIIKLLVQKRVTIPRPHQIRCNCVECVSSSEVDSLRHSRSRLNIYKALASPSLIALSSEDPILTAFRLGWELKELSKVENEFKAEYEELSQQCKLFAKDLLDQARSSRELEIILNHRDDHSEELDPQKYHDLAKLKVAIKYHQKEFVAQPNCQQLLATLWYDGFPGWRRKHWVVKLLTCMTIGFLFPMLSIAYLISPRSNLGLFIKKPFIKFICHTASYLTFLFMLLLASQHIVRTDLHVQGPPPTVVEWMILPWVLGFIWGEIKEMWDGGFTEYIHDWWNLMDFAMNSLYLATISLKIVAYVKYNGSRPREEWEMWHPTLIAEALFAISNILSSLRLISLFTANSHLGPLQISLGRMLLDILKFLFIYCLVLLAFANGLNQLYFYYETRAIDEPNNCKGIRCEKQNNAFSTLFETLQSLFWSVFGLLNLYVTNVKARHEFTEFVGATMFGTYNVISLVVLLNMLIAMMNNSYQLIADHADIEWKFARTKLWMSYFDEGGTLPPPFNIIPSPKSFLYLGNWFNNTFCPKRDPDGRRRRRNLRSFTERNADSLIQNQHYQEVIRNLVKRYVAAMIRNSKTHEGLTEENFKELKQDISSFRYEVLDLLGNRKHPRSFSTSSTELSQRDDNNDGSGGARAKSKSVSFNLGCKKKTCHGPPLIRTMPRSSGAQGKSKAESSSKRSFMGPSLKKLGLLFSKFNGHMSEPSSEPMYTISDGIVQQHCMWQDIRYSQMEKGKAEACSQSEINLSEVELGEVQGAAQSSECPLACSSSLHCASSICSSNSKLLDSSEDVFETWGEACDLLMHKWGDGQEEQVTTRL
Type: cell-based
Procedure: ICLN-1633 cells (HEK-TREx hTRPC5) expressing TRPC5 were generated as follows. Commercially available HekTrex-293 cells were seeded at 0.7×10^6 cells/well in a 1×6-well plate 24 hrs prior to transfection using 2 mL cell growth media containing no antibiotics (1× DMEM/high glucose (Hyclone #SH30022.02); 10% fetal bovine serum (Sigma) 2 mM sodium pyruvate, 10 mM HEPES). The human TRPC5 coding sequence (NM_012471 with a silent T478C mutation) was cloned into pcDNA5/TO (Invitrogen; Cat No. V103320) using hygromycin as the resistance gene and the plasmid (SEQ ID NO:1) propagated using T-Rex-293 cells (Invitrogen; Cat No. R71007) following manufacturer's directions. On day 2, 2 μg of plasmid DNA plus 6 μl of Xtreme-GENE HP reagent in Optimem (200 μl total volume) was prepared and incubated for 15 min at room temperature. This plasmid solution was then gently overlayed dropwise onto each well and the plate was gently swirled to mix complex with the media for approximately 30 seconds. Transfected cells were incubated at 37° C. in a 10% CO2 incubator for 24 hrs. The transfected cells were harvested and transferred into 2×150 mm dishes containing cell growth media with no antibiotics at 37° C.
Compounds were made up to, or supplied as a 10 mM stock solution generally using DMSO as the vehicle. 10-point dose response curves were generated using the Echo-550 acoustic dispenser. Compound source plates were made by serially diluting compound stocks to create 10 mM, 1 mM, and 0.1 mM solutions in DMSO into Echo certified LDV plates. The Echo then serially spotted 100% DMSO stock solutions into source dose response plates to generate a 4-fold dilution scheme. 100% DMSO was added to the spotted dose response plates to bring the final volume to 5 μl. 300 nl of the dose response stock plate was then spotted into pre-incubation and stimulation assay plates. 50 μl of pre-incubation buffer and 100 μl of stimulation buffer was then added to the plates resulting in a final assay test concentration range of 30 μM to 0.0001 μM with a final DMSO concentration of 0.3%.
Human ICLN-1633 cells expressing were plated onto 384 well, black poly-D-lysine-coated microplates and maintained in TRPC5 growth media the day prior to use for experiments. TRPC5 expression was induced by the application of 1 μg/mL tetracycline at the time of plating. Media was removed from the plates and 10 μl of 4 μM of Fluo-4 AM (mixed with equal volume of Pluronic F-127) in Earls's Balanced Salt Solution (EBSS) was added to the cells. Cells were incubated at room temperature, protected from light, for 60-90 minutes. After the incubation period, the dye was removed and replaced with 10 μl of EBSS. Cell, pre-incubation and stimulation plates were loaded onto the FLIPR-II and the assay was initiated. The FLIPR measured a 10 second baseline and then added 10 μl of 2× compounds (or controls). Changes in fluorescence were monitored for an additional 5 minutes. After the 5 minute pre-incubation, 20 μl of 2× riluzole (with 1× compound or controls) was added to the cell plate. The final riluzole stimulation concentration in the assay was 30 μM. After the riluzole addition, changes in fluorescence were monitored for an additional 5 minutes. Reduction in the riluzole-activated calcium response relative to control wells was reported as inhibition. A compound-mediated increase in the riluzole response relative to control riluzole response (no test agent present) with no enhancement of calcium entry during preincubation phase was reported as an agonist response.
Compound inhibition of TRPC5 calcium response was determined as follows. After the riluzole addition, fluorescence was monitored for a 5-minute period. For inhibition, the maximum relative fluorescence response (minus the control response of 1 μM of an internal control compound known to maximally block TRPC5 calcium response, the “REF INHIB” in the formula below) was captured and exported from the FLIPR. […]

IC50 [nM]	SMILES
> 10000	C[C@@H]1C(=O)N(C)c2nc(Oc3cccc(F)c3)n(Cc3ccc(Cl)cc3)c2C(=O)N1CCCO (single isomer, unassigned) [Compound 19]
> 10000	O=C1c2c(nc(Oc3cccc(OC(F)(F)F)c3)n2Cc2ccc(Cl)cc2)N2CCC[C@H]2C(=O)N1CCCO (single isomer, unassigned) [Compound 22]
1 to 1000	O=C1c2c(nc(Oc3cccc(OC(F)(F)F)c3)n2Cc2ccc(Cl)cc2)N2CCC[C@@H]2C(=O)N1CCCO (single isomer, unassigned) [Compound 23]
1 to 1000	CN1CC(=O)N(CCCO)C(=O)c2c1nc(Oc1cccc(OC(F)(F)F)c1)n2Cc1ccc(Cl)cc1 [Compound 21, 1-[(4-chlorophenyl)methyl]-7-(3-hydroxypropyl)-4-methyl-2-[3-(trifluoromethoxy)phenoxy]-1H,4H,5H,6H,7H,8H-imidazo[4,5-e][1,4]diazepine-6,8-dione]
